Test results: article PMC7098370 (Toxicological Sciences, 2020)
Marks after values point to notes of the source that are not given here.

Tests used:
[1] = Plasma toxicokinetic study; format: in vivo, rat; conditions: for C max / K el / t 1/2: 300 mg test item/kg PO
[2] = Bioelution in simulated gastric fluid; conditions: simulated gastric fluid pH 1.5, 2 h, 37°C
[3] = tested on: Crl:CD(SD) rats; assay: Benchmark dose modeling; design: species or system rat; conditions: nonconstant variance
[4] = tested on: Crl:CD(SD) rats; assay: Subchronic 90-day oral RDT study with reproductive toxicity screening; format: in vivo, rat
[5] = Bioelution in simulated intestinal fluid; conditions: simulated intestinal fluid pH 7.4, 24 h
[6] = tested on: Crl:CD(SD) rats; assay: Combined RDT study with reproduction/developmental toxicity screening test; format: in vivo, rat; conditions: for mean body weight of pups below the control: high dose
[7] = tested on: rats; assay: Acute oral toxicity testing; format: in vivo, rat
[8] = Mass balance study: urinary and fecal Co excretion after single oral gavage; format: in vivo, rat; conditions: single oral bolus 300 mg/kg bw (220 mg Co/kg bw), 72 h
[9] = female HGB dataset, Exponential 5 model
[10] = male PLT dataset, Exponential 2 model
[11] = females, 73.4 mg Co/kg bw/day, end of 90-day oral exposure, experimental group
[12] = females, 220 mg Co/kg bw/day, end of 90-day oral exposure, experimental group
[13] = females, 734 mg Co/kg bw/day, end of 90-day oral exposure, experimental group
[14] = females, 734 mg Co/kg bw/day, recovery group, end of 28-day recovery period
[15] = females, 734 mg Co/kg bw/day, recovery group, end of 90-day oral exposure
[16] = males, 73.4 mg Co/kg bw/day, end of 90-day oral exposure, experimental group
[17] = males, 220 mg Co/kg bw/day, end of 90-day oral exposure, experimental group
[18] = males, 734 mg Co/kg bw/day, end of 90-day oral exposure, experimental group
[19] = males, 734 mg Co/kg bw/day, recovery group, end of 28-day recovery period
[20] = males, 734 mg Co/kg bw/day, recovery group, end of 90-day oral exposure

[O]=[Co].[O]=[Co][O][Co]=[O] [Co3O4, Tricobalt tetraoxide]
C max ([1]; females): 1.10 ng/mL | K el ([1]; females): 0.0430 h⁻¹ | t 1/2 ([1]; females): 16.1 h | C max ([1]; males): 2.08 ng/mL | K el ([1]; males): 0.0402 h⁻¹ | t 1/2 ([1]; males): 17.3 h | oral bioavailability ([1]; single oral bolus, rats, males and females not distinguished): below 0.1% | Bioelution of Co in gastric fluid (% release), 2 h [2]: 0.2 % release | Bioelution of Co in gastric fluid / cobalt release (µg Co/g sample), 2 h [2]: 1460 µg Co/g sample | BMD1STD [3, 9]: 210 mg Co/kg bw/day | BMDL1STD [3, 9]: 115 mg Co/kg bw/day | BMD1STD [3, 10]: 317 mg Co/kg bw/day | BMDL1STD [3, 10]: 219 mg Co/kg bw/day | premature deaths ([4]; 90-day oral gavage, all doses): None of the animals died prematurely | LOAEL (systemic) ([4]; 90-day oral gavage, rats): 734 mg Co/kg bw/day | NOAEL ([4]; 90-day oral gavage, rats): 220 mg Co/kg bw/day | NOAEL (reproductive) ([4]; 90-day oral gavage, rats): > 734 mg Co/kg bw/day | HCT, %Diff vs control [4, 11]: −0.6% | HCT, mean [4, 11]: 44.76% | HGB, %Diff vs control [4, 11]: +0.2% | HGB, mean [4, 11]: 9.51 mmol/L | RBC, mean [4, 11]: 8.17 ×10E6/µl | HCT, %Diff vs control [4, 12]: +4.4% | HCT, mean [4, 12]: 46.99% | HGB, %Diff vs control [4, 12]: +5.9% | HGB, mean [4, 12]: 10.09 mmol/L | RBC, %Diff vs control [4, 12]: +5.6% | RBC, mean [4, 12]: 8.74 ×10E6/µl | HCT, %Diff vs control [4, 13]: +13.9% | HCT, mean [4, 13]: 51.27% | HGB, %Diff vs control [4, 13]: +16.4% | HGB, mean [4, 13]: 11.09 mmol/L | RBC, %Diff vs control [4, 13]: +12.9% | RBC, mean [4, 13]: 9.35 ×10E6/µl | HCT, mean [4, 14]: • 40.76 • .530% | HGB, mean [4, 14]: • 9.28 • .450 mmol/l | RBC, mean [4, 14]: • 7.56 • .573 ×10E6/µl | HCT, mean [4, 15]: • 50.76 ^* • .013% | HGB, mean [4, 15]: • 10.86 ^* • .032 mmol/l | RBC, mean [4, 15]: • 9.12 • .17 ×10E6/µl | HCT, %Diff vs control [4, 16]: +2.6% | HCT, mean [4, 16]: 49.53% | HGB, %Diff vs control [4, 16]: +2.2% | HGB, mean [4, 16]: 10.29 mmol/L | PLT, %Diff vs control [4, 16]: +4.2% | PLT, mean [4, 16]: 896.5 ×10E3/µl | RBC, %Diff vs control [4, 16]: +1.1% | RBC, mean [4, 16]: 9.30 ×10E6/µl | HCT, %Diff vs control [4, 17]: +9.2% | HCT, mean [4, 17]: 52.73% | HGB, %Diff vs control [4, 17]: +9.5% | HGB, mean [4, 17]: 11.03 mmol/L | PLT, mean [4, 17]: 796.1 ×10E3/µl | RBC, %Diff vs control [4, 17]: +9.6% | RBC, mean [4, 17]: 10.08 ×10E6/µl | HCT, %Diff vs control [4, 18]: +24.2% | HCT, mean [4, 18]: 59.97% | HGB, %Diff vs control [4, 18]: +25.4% | HGB, mean [4, 18]: 12.63 mmol/L | PLT, mean [4, 18]: 573.9 ×10E3/µl | RBC, %Diff vs control [4, 18]: +22.7% | RBC, mean [4, 18]: 11.29 ×10E6/µl | HCT, mean [4, 19]: • 50.38 • .126% | HGB, mean [4, 19]: • 10.82 • .075 mmol/l | PLT, mean [4, 19]: • 882.4 • .285 ×10E3/µl | RBC, mean [4, 19]: • 9.47 • .052 ×10E6/µl | HCT, mean [4, 20]: • 60.96** • 9.1E−06% | HGB, mean [4, 20]: • 12.78** • 2.4E−06 mmol/l | PLT, mean [4, 20]: • 645.6** • .0085 ×10E3/µl | RBC, mean [4, 20]: • 11.3** • 7.1E−05 ×10E6/µl | Bioelution of Co in intestinal fluid (% release) [5]: 0.05 (24 h) % release | Bioelution of Co in intestinal fluid / cobalt release (µg Co/g sample) [5]: 385 (24 h) µg Co/g sample | food intake of dams reduced compared with the control ([6]; 220 mg Co/kg bw/day, lactation day 1): 30% | mean body weight of pups below the control ([6]; lactation day 0/1): up to 18% | mean body weight of pups below the control ([6]; lactation day 4): up to 21% | premature deaths ([6]; oral gavage, all doses): None of the animals died prematurely | NOAEL (F0 generation) ([6]; oral gavage, rats): 734 mg Co/kg bw/day | NOAEL (F1 generation) ([6]; oral gavage, rats): 220 mg Co/kg bw/day | NOAEL (reproductive toxicity) ([6]; oral gavage, rats): > 734 mg test item/kg bw/day | Acute LD50 (mg Co/kg bw) ([7]; OECD 401 or 425): > 8076 mg Co/kg bw | Acute LD50 (mg substance/kg bw) ([7]; OECD 401 or 425): exceeding 11 000 mg substance/kg bw | Acute LD50 (mg substance/kg bw) ([7]; OECD 401 or 425, listed as Tricobalt Tetraoxide): > 11 000 mg substance/kg bw | Fecal Excretion (%) ([8]; females): 95.2 % of Co applied | Sum of Urinary and Fecal Excretion (%) ([8]; females): 95.3 % of Co applied | Urinary Excretion (%) ([8]; females): 0.12 % of Co applied | Fecal Excretion (%) ([8]; males): 116.4 % of Co applied | Sum of Urinary and Fecal Excretion (%) ([8]; males): 116.5 % of Co applied | Urinary Excretion (%) ([8]; males): 0.13 % of Co applied
